For this data set the following is noted: for aqueous solubility: pH 6.8.

The term aqueous solubility denotes how much of the substance goes into solution per volume. A lower aqueous solubility goes with little dissolved substance.

Values after ≈ are worked out from the molar mass of the structure shown. Non-standard residues stand in square brackets, D forms with d. Residues, ends and D or L forms follow the SMILES beside them. *: point of attachment. Fmoc = O=C(OCC1c2ccccc2-c2ccccc21)*; Cha = N[C@@H](CC1CCCCC1)C(=O)O; AMC = Cc1cc(=O)oc2cc(N*)ccc12

`Cc1nc(C2CCN(CC(N)=O)CC2)no1` showed an intrinsic clearance, human liver microsomes not above 4.74 mL/min/kg; an intrinsic clearance, rat liver microsomes not above 10.7 mL/min/kg; an aqueous solubility of 61.4 µg/mL (≈ 274 µM).
`Fc1cccc2c1CN(Cc1c[nH]nc1-c1cccnc1)CC2` had an intrinsic clearance, human liver microsomes of 92.9 mL/min/kg and an intrinsic clearance, rat liver microsomes of 1240 mL/min/kg.
Consider `CCOc1ccc(-c2csc(N)n2)cc1`, for which the MDR1-MDCK efflux ratio is 0.572; the intrinsic clearance, human liver microsomes came to 102 mL/min/kg; the intrinsic clearance, rat liver microsomes is 338 mL/min/kg; the aqueous solubility came out at 6.55 µg/mL (≈ 29.7 µM).
Regarding `Cc1nc(N2CCNCC2)c2cnn(C)c2n1`, the MDR1-MDCK efflux ratio stood at 15.3; the intrinsic clearance, human liver microsomes was not above 4.74 mL/min/kg; the intrinsic clearance, rat liver microsomes stood at 15.1 mL/min/kg.
On to `CC1CCC(NC(=O)c2oc3ccccc3c2CS(C)=O)CC1` (configuration not stated), for which the MDR1-MDCK efflux ratio was determined as 2.52; the intrinsic clearance, human liver microsomes is 15.2 mL/min/kg; the intrinsic clearance, rat liver microsomes came out at 154 mL/min/kg; the aqueous solubility turned out to be 68.8 µg/mL (≈ 206 µM).
With `Cc1ccccc1OCCCNc1cc(Cn2c(C)nc3ccccc32)nc(N)n1`, the MDR1-MDCK efflux ratio stood at 21.4; the intrinsic clearance, human liver microsomes came out at 717 mL/min/kg; the intrinsic clearance, rat liver microsomes amounted to 2130 mL/min/kg; the aqueous solubility came to 14.4 µg/mL (≈ 35.9 µM).
In turn, `O=C(CN1CCCC(c2cccc(Cc3cccc(F)c3)n2)C1)N1CCCC1` (configuration not stated) came in with a fraction unbound, human plasma of 0.115; a fraction unbound, rat plasma of 0.0899; an intrinsic clearance, human liver microsomes of 76.2 mL/min/kg; an intrinsic clearance, rat liver microsomes of 1140 mL/min/kg.
As for `C#CCNC(=O)N(Cc1ccccc1F)C1CCOCC1`, the MDR1-MDCK efflux ratio was 2.15; the intrinsic clearance, human liver microsomes is not above 4.74 mL/min/kg; the intrinsic clearance, rat liver microsomes amounted to 35.5 mL/min/kg.
Taken in the same sequence, the figures for `N[C@@H]1CCCN(c2c(/C=C3\SC(=O)NC3=O)cccc2-c2ccccc2)C1` were 28.9, 9.01 mL/min/kg and 25.9 mL/min/kg.
On to `CN1CCNc2nc3ccccc3nc21`, for which the MDR1-MDCK efflux ratio amounted to 0.671; the intrinsic clearance, human liver microsomes worked out at 74 mL/min/kg; the intrinsic clearance, rat liver microsomes was 143 mL/min/kg.
With `O=C1CCCN1CCc1nc(-c2ccc3[nH]c(=O)oc3c2)cs1`, the MDR1-MDCK efflux ratio worked out at 19.1; the intrinsic clearance, human liver microsomes was not above 4.74 mL/min/kg; the intrinsic clearance, rat liver microsomes turned out to be 65.9 mL/min/kg; the aqueous solubility amounted to 59 µg/mL (≈ 179 µM).
`CCc1c(N)cnn1-c1ccccc1C`: the MDR1-MDCK efflux ratio is 0.677; the intrinsic clearance, human liver microsomes is 8.11 mL/min/kg; the intrinsic clearance, rat liver microsomes came to 165 mL/min/kg; the aqueous solubility was found to be 37.1 µg/mL (≈ 185 µM).
Take `Nc1cnc(Cc2ccc(F)cc2)nc1`: the MDR1-MDCK efflux ratio was determined as 0.67; the intrinsic clearance, human liver microsomes is not above 4.74 mL/min/kg; the intrinsic clearance, rat liver microsomes was 15.4 mL/min/kg; the aqueous solubility came out at 38.2 µg/mL (≈ 188 µM).
The compound `CC(=O)N[C@H]1/C(=N\OC(=O)Nc2ccccc2)O[C@H](CO)[C@H](O)[C@@H]1O` yielded an aqueous solubility of 66.4 µg/mL (≈ 188 µM).
Take `O=C(Nc1ccc(Cl)nc1)NC1CCN(C2CCCC2)CC1`: the MDR1-MDCK efflux ratio is 20.9; the intrinsic clearance, human liver microsomes is not above 4.74 mL/min/kg; the intrinsic clearance, rat liver microsomes was not above 10.7 mL/min/kg.
Regarding `CN(C/C=C/C(=O)N1CCC[C@@H](n2nc(-c3ccc(Oc4ccccc4)cc3)c3c(N)ncnc32)C1)CCCCNC(=O)CCCC(=O)NCCCOCCOCCOCCCNC(=O)CCCC[C@@H]1SC[C@@H]2NC(=O)N[C@@H]21`, the intrinsic clearance, human liver microsomes is 127 mL/min/kg and the intrinsic clearance, rat liver microsomes is 87.3 mL/min/kg.
On to `Cc1ccc(NC(=O)c2cccc3cccnc23)cc1`, for which the intrinsic clearance, human liver microsomes stood at 206 mL/min/kg; the intrinsic clearance, rat liver microsomes turned out to be 240 mL/min/kg; the aqueous solubility stood at 5.7 µg/mL (≈ 21.7 µM).
Turning to `CCNC(=O)C1CN(c2nc(C3CC3)nc3c2CCC3)C1`, the MDR1-MDCK efflux ratio was found to be 23.5; the intrinsic clearance, human liver microsomes is not above 4.74 mL/min/kg; the intrinsic clearance, rat liver microsomes amounted to 19.9 mL/min/kg; the aqueous solubility amounted to 45 µg/mL (≈ 157 µM).
For the compound `COc1cccc(NC(=O)CNc2cccc(-c3ccnc(C)n3)c2)c1`, the MDR1-MDCK efflux ratio was determined as 2.39; the intrinsic clearance, human liver microsomes came to 61.2 mL/min/kg; the intrinsic clearance, rat liver microsomes amounted to 250 mL/min/kg; the aqueous solubility was 50.5 µg/mL (≈ 145 µM).
For the compound `CN1CCC(O)(CNC(=O)C2CCCCCC2)CC1`, the MDR1-MDCK efflux ratio is 11.2; the intrinsic clearance, human liver microsomes was not above 4.74 mL/min/kg; the intrinsic clearance, rat liver microsomes amounted to 458 mL/min/kg.
As for `C=CC(=O)Nc1cccc(Oc2nc(Nc3ccc(N4CCN(C)CC4)cc3)nc3ccsc23)c1`, the MDR1-MDCK efflux ratio is 85.5; the fraction unbound, human plasma is 0.00892; the fraction unbound, rat plasma turned out to be 0.00491; the intrinsic clearance, human liver microsomes stood at 9.79 mL/min/kg. Also, the intrinsic clearance, rat liver microsomes was 210 mL/min/kg.
As to `Cc1cc(=O)oc2cc(NC(=O)[C@H](CCCCN)NC(=O)[C@H](CC3CCCCC3)NC(=O)OCC3c4ccccc4-c4ccccc43)ccc12` (Fmoc-[Cha]-Lys-{AMC}), the MDR1-MDCK efflux ratio was 1.11; the intrinsic clearance, human liver microsomes was not above 4.74 mL/min/kg; the intrinsic clearance, rat liver microsomes is not above 10.7 mL/min/kg.
Regarding `C[C@@H]1Cc2ccccc2N1C(=O)Cn1nc(-c2cccc3ncccc23)oc1=O`, the MDR1-MDCK efflux ratio came out at 0.843; the fraction unbound, human plasma was 0.0168; the fraction unbound, rat plasma came to 0.0229; the intrinsic clearance, human liver microsomes came out at 73.8 mL/min/kg. This compound gave an intrinsic clearance, rat liver microsomes of 1080 mL/min/kg.
Take `CC1(C)CC(CC(=O)NCCn2ccnn2)CC(C)(C)N1`: the MDR1-MDCK efflux ratio worked out at 0.186; the intrinsic clearance, human liver microsomes is not above 4.74 mL/min/kg; the intrinsic clearance, rat liver microsomes is not above 10.7 mL/min/kg.
Turning to `C[C@@H]1c2nnn(-c3ncc(F)cn3)c2CCN1C(=O)c1cccc(C(F)(F)F)c1Cl`, the MDR1-MDCK efflux ratio came out at 3.42; the fraction unbound, human plasma turned out to be 0.0931; the fraction unbound, rat plasma stood at 0.174; the intrinsic clearance, human liver microsomes is not above 4.74 mL/min/kg. In addition, the intrinsic clearance, rat liver microsomes was not above 10.7 mL/min/kg and the aqueous solubility stood at 35.4 µg/mL (≈ 80.2 µM).
As to `O=C1CN(c2ccc(Nc3nccc(C(F)(F)F)n3)cn2)CCN1`, the MDR1-MDCK efflux ratio worked out at 2.94; the fraction unbound, human plasma worked out at 0.35; the fraction unbound, rat plasma was 0.271; the intrinsic clearance, human liver microsomes is not above 4.74 mL/min/kg. The intrinsic clearance, rat liver microsomes was determined as 24.4 mL/min/kg and the aqueous solubility stood at 51.3 µg/mL (≈ 152 µM).
Take `Cc1cc(C)c2c(N(C)CCC(C)C)ncnc2n1`: the MDR1-MDCK efflux ratio came out at 0.862; the intrinsic clearance, human liver microsomes turned out to be 14.3 mL/min/kg; the intrinsic clearance, rat liver microsomes was 1220 mL/min/kg; the aqueous solubility turned out to be 37.5 µg/mL (≈ 145 µM).
In turn, `CC(Sc1nc2c(cnn2-c2ccccc2)c(=O)[nH]1)C(N)=O` (configuration not stated) yielded an aqueous solubility of 2.15 µg/mL (≈ 6.82 µM).
Regarding `CCc1c(C(=O)NCCc2ccc(N3CCCCC3)cc2)[nH]c2ccc(Cl)cc12`, the MDR1-MDCK efflux ratio was found to be 0.577; the intrinsic clearance, human liver microsomes was 40.5 mL/min/kg; the intrinsic clearance, rat liver microsomes worked out at 484 mL/min/kg.
On the same counts, the results for `Cc1[nH]nc(CCC(=O)NCCCOC2CCCCC2)c1C` are 18.2, 63.5 mL/min/kg and 4360 mL/min/kg.
Consider `COCCN(C)c1ccc(CN2CCc3nn(C)c(=O)cc3C2)cn1`, for which the MDR1-MDCK efflux ratio was 3.02; the intrinsic clearance, human liver microsomes was not above 4.74 mL/min/kg; the intrinsic clearance, rat liver microsomes came to 22 mL/min/kg.

The record behind these values is the Biogen ADME set (Fang et al. 2023).
